# Data from patent publication US8609695B2, “Methods of treating and/or suppressing insulin resistance” (Endorecherche, Inc., priority 1999, dated 2013).
# Where a name gives a salt, the structure may show the parent alone.
# How the values were obtained:
# [1] = system: human endometrial adenocarcinoma Ishikawa cells; experiment: Alkaline phosphatase activity in Ishikawa cells (Example 11); assay type: cell-based; details: for IC50: Homo sapiens, Ishikawa, 120 h, read-out: Inhibition of 1 nM E2 stimulation of alkaline phosphatase by tested compounds IC50; for Stimulation of alkaline phosphatase by tested compounds % of 1 nM E2 stimulation: intrinsic estrogenic activity
# Description: The human Ishikawa cell line derived from a well differentiated endometrial adenocarcinoma was kindly provided by Dr. Erlio Gurpide, The Mount Sinai Medical Center, New York, N.Y. The Ishikawa cells were routinely maintained in Eagle's Minimum Essential Medium (MEM) containing 5% (vol/vol) FBS and supplemented with 100 U/ml penicillin, 100 μg/ml streptomycin, 0.1 mM Non-essential Amino Acids solution. Cells were plated in Falcon T75 flasks at a density of 1.5×10^6 cells at 37 C.
# Twenty four hours before the start of an experiment, the medium of near confluent Ishikawa cells was replaced by fresh estrogen-free basal medium (EFBM) consisting of a 1:1 (v:v) mixture of phenol red-free Ham's F-12 and Dulbecco's Modified Eagle's Medium (DMEM) supplemented with 100 U/mL penicillin, 100 μg/mL Streptomycin, 2 mM glutamine, and 5% FBS treated twice with dextran-coated charcoal to remove endogenous steroids. Cells were then harvested by 0.1% pancreatin (Sigma) and 0.25 mM HEPES, resuspended in EFBM and plated in Falcon 96 well flat-bottomed microtiter plates at a density of 2.2×10^4 cells/well in a volume of 100 μl and allowed to adhere to the surface of the plates for 24 h. Thereafter, medium was replaced with fresh EFBM containing the indicated concentrations of compounds in a final volume of 200 μl. Cells were incubated for five days, with a medium change after 48 h.
# At the end of the incubation period, microtiter plates were inverted and growth medium was decanted. The plates were rinsed with 200 μL by well of PBS (0.15M NaCl, 10 mM sodium phosphate, pH 7.4). PBS was then removed from the plates while carefully leaving some residual PBS, and the wash procedure was repeated once. The buffered saline was then decanted, and the inverted plates were blotted gently on a paper towel. Following replacement of the covers, the plates were placed at −80 C for 15 min followed by thawing at room temperature for 10 min. The plates were then placed on ice, and 50 μl of an ice-cold solution containing 5 mM p-nitrophenyl phosphate, 0.24 mM MgCl2, and 1 M diethanolamine (pH 9.8) was added. Plates were then warmed to room temperature, and the yellow color from the production of p-nitrophenyl was allowed to develop (8 min). Plates were monitored at 405 nm in an enzyme-linked immunosorbent assay plate reader (BIO-RAD, model 2550 EIA Reader).
# Dose-response curves as well as IC50 values were calculated using a weighted iterative nonlinear squares regression.
# [2] = system: ovariectomized female rats; experiment: SERM comparison, energy balance and lipid-lipoprotein metabolism (Example 10); assay type: in vivo, Rattus norvegicus; details: OVX rats, 20 days; for Serum insulin (in words): 0.5 mg/rat; for Brown adipose tissue Lipoprotein lipase activity / Brown adipose tissue weight / Cumulative food intake / Serum glucose / Serum insulin / Serum leptin / Serum total cholesterol / Serum triglycerides / Soleus muscle Lipoprotein lipase activity / Soleus muscle weight / Total weight / VastusLateralis muscle weight / White adipose tissue inguinal Lipoprotein lipase activity / White adipose tissue inguinal weight / White adipose tissue retroperitoneal Lipoprotein lipase activity / White adipose tissue retroperitoneal weight: high carbohydrate diet, 0.5 mg/rat oral gavage
# Description: For this purpose, tested compounds were administered by oral gavage for 20 days (0.5 mg/rat for each compound; 0.5 ml/rat) in 0.4% methylcellulose to ovariectomized female rats.
# d) Diet: • During acclimation period, rats received a certified rodent diet (Lab Diet #5002, pellet) and tap water ad libitum while during study period, they received a high carbonhydrate diet (diet #3) and tap water ad libitum. The diet was composed of (g/100 g): Corn starch, 31.2; Dextrose, 31.2; Casein, 20.0; corn oil, 6.4; dl-Methionine, 0.3; Vitamine mix, 1.0; AIN-76 mineral mix, 4.9; fiber, 5.0. Rats were fasted (with access to water only) around 07 h00 the morning of their necropsy Randomization:
# Test group: Seventy-seven rats were assigned to 8 groups of 9-10 rats for conduct of the study outlined below.
# On day 0 of the study, rats from group 2 to 8 were ovariectomized (by bilateral flank incision) under Isoflurane anesthesia. Rats from group 1 were sham-operated.
# Rats were weighed on day 0 (surgery) and then, every 2 days during study period as well as on the day of necropsy.
# Food consumption was evaluated every 2 days.
# In order to determine the effect of treatments on fat percentage, body composition was measured on Day 17 of the study using dual energy x-ray absorptiometry (DEXA; QDR 4500A, Hologic, Waltham, Mass.).
# On day 21 of the study, approximately 24 hours after the last dosing and 6 hours of fasting, animals under Ketamine-Xylazine anesthesia were killed by exsanguination at the abdominal aorta.
# Blood lipids (Total cholesterol and Triglycerides) and glucose were measured on frozen serum samples using the Boehringer Mannheim Diagnostic Hitachi 911 Analyzer (Boehringer Mannheim Diagnostic Laboratory Systems). Circulating hormones and substrates (Insulin and leptin) were measured on serum sample using the following kits: • Insulin: Linco RIA kit • Leptin: Linco RIA kit Organs and Tissues Collected
# The following tissues were collected and weighed: • Muscle (right soleus and right VLM), fat (right retroperitoneal and right inguinal), and brown adipose tissue.
# A piece of ˜0.1 g of all tissues (except uterus and vagina) were frozen in liquid nitrogen and kept at −80 C for later determination of lipoprotein-lipase (LPL) activity.
# [3] = system: ovariectomized female rats; experiment: Uterine weight, fat and lipid, 20-day treatment (Example 13); assay type: in vivo, Rattus norvegicus; details: 20 days
# Description: The objective of this study was to compare the effect on uterine, weight, fat and blood lipids following treatment with EM-652.HCl, ERA-923 and lasofoxifene, administered alone or in combination with EM-652.HCl, to ovariectomized female rats. For this purpose, each compound was administered orally for 20 days to ovariectomized female rats and at the end of the treatment period, the uterus and fat were collected and weighed.
# d) Diet: • Certified Rodent feed (Lab Diet #5002, pellets) and tap water were provided ad libitum. Randomization:
# Seventy rats were separated into 7 groups of 9 to 11 animals for conduct of the study outlined below:
# Animals from groups 2 to 9 were ovariectomized under Isoflurane-induced anesthesia on Day 7 of the study.
# The vehicle or tested compounds were given as suspension in 0.4% methylcellulose by oral gavage (0.5 ml/gavage/rat) from Day 2 to Day 21 of the study.
# Rats were weighed on Study Day 1 and at the necropsy (SD 22).
# Approximately 24 hours after the last dosing, overnight fasted rats under Isoflurane-induced anesthesia were killed by exsanguination at the abdominal aorta.
# Uteri and retroperitonal adipose tissue were removed and weighed.
# [4] = system: ovariectomized female rats; experiment: 34-week treatment with ethynyl estradiol, EM-652.HCl, Raloxifene and DHEA, body fat (Example 7); assay type: in vivo, rat; details: OVX rats, 34 weeks
# Description: The objective of this study was to assess the effect of a combined treatment with EM-652.HCl, and DHEA on body fat and body weight parameters in ovariectomized rats. For this purpose, ovariectomized rats received daily administration of EM-652.HCl (1 mg/kg), and DHEA (80 mg/kg) alone or in combination, for 34 weeks. EM-652.HCl was administered orally while DHEA was applied topically on dorsal skin. One group of animals was orally treated with 17-ethynylestradiol (0.1 mg/kg) and Raloxifene (EM-1105; 1 mg/kg) for comparison.
# Ten to twelve week-old female Sprague-Dawley rats (Crl:CD(SD)Br) weighing approximately 235-250 g at start of treatment were used. Eighty rats were randomly distributed between 7 groups of 11 to 12 animals per group as follows: 1) Intact control; 2) OVX control; 3) OVX+EE2 (0.1 mg/kg); 4) OVX+raloxifene (1 mg/kg); 5) OVX+EM-652.HCl (1 mg/kg); 6) OVX+DHEA (80 mg/kg); 7) OVX+EM-652.HCl+DHEA. On day 1 of the study, the animals of the appropriate groups were bilaterally ovariectomized (OVX) under isoflurane anesthesia. EM-652.HCl, raloxifene and EE2 (Steraloids) were administered once daily by oral gavage as suspension in 0.4% methylcellulose (0.5 ml/rat) for 34 weeks while DHEA was applied topically once daily on dorsal skin as a solution in 50% ethanol-50% propylene glycol (0.5 ml/rat) for the same time period. Approximately 24 hours after the last dosing, overnight fasted animals were killed by exsanguination at the abdominal aorta under isoflurane anesthesia. Left and right retroperitoneal adipose tissues were collected and weighed.
# After 34 weeks of treatment, individual rats under anesthesia with isoflurane had their whole body skeleton scanned using dual energy x-ray absorptiometry (DEXA; QDR 4500A, Hologic, Waltham, Mass.) and a Regional High Resolution Scan software. The body composition (including fat percentage) was determined.
# Data were expressed as the means±SEM.
# [5] = Ishikawa cells, five days incubation
# [6] = OVX rats, commercial rodent diet, 0.5 mg oral, EM-652.HCl 2.5 mg in combinations
# [7] = EE2 0.1, Raloxifene 1, EM-652.HCl 1 mg/kg oral, DHEA 80 mg/kg topical
structure (smiles),measurement,setting,value
CC/C(=C(\c1ccc(O)cc1)c1ccc(OCCN(C)C)cc1)c1ccccc1 [OH-Tamoxifen],IC50,[1],31.9 ± 6 nM
same,Stimulation of alkaline phosphatase by tested compounds % of 1 nM E2 stimulation,[1]; [5],32.4 ± 2.2 (8) % of 1 nM E2 stimulation
CN(C)CCOc1ccc(/C(=C(/CCCl)c2ccccc2)c2ccc(O)cc2)cc1 [OH-Toremifene],Stimulation of alkaline phosphatase by tested compounds % of 1 nM E2 stimulation,[1]; [5],29.6 ± 2.1 (6) % of 1 nM E2 stimulation
CC/C(=C(/c1ccc(OCCN(C)C)cc1)c1cccc(O)c1)c1ccccc1 [Droloxifene],IC50,[1],291 ± 115 nM
same,Stimulation of alkaline phosphatase by tested compounds % of 1 nM E2 stimulation,[1]; [5],23.8 ± 3.1 (7) % of 1 nM E2 stimulation
COc1ccc(-c2sc3cc(O)ccc3c2Oc2ccc(OCCN3CCCCC3)cc2)cc1.Cl [LY 353381],Serum insulin (in words),[2],decreased
same,Brown adipose tissue Lipoprotein lipase activity,[2],888 ± 65 μU/g protein
same,Brown adipose tissue weight,[2],0.368 ± 0.031 g
same,Cumulative food intake,[2],312 ± 7 g
same,Serum glucose,[2],17.1 ± 0.7 mmol/L
same,Serum insulin,[2],0.104 ± 0.11 nmol/L
same,Serum leptin,[2],1.22 ± 0.21 ng/mL
same,Serum total cholesterol,[2],1.15 ± 0.08 mmol/L
same,Serum triglycerides,[2],1.23 ± 0.28 mmol/L
same,Soleus muscle Lipoprotein lipase activity,[2],10.1 ± 1.0 μU/g protein
same,Soleus muscle weight,[2],0.092 ± 0.002 g
same,Total weight,[2],231 ± 4 g
same,VastusLateralis muscle weight,[2],0.955 ± 0.20 g
same,White adipose tissue inguinal Lipoprotein lipase activity,[2],559 ± 165 μU/g protein
same,White adipose tissue inguinal weight,[2],0.290 ± 0.038 g
same,White adipose tissue retroperitoneal Lipoprotein lipase activity,[2],1365 ± 119 μU/g protein
same,White adipose tissue retroperitoneal weight,[2],0.968 ± 0.120 g
"Oc1ccc2c(c1)CC[C@H](c1ccccc1)[C@@H]2c1ccc(OCCN2CCCC2)cc1 [Lasofoxifene, cis-1R-[4′-pyrrolidino-ethoxyphenyl]-2S-phenyl-6-hydroxy-1,2,3,4,-tetrahydronapthalene D-(−)-tartrate salt]",Serum insulin (in words),[2],decreased
same,Brown adipose tissue Lipoprotein lipase activity,[2],982 ± 98 μU/g protein
same,Brown adipose tissue weight,[2],0.244 ± 0.022 g
same,Cumulative food intake,[2],283 ± 14 g
same,Serum glucose,[2],15.8 ± 1.3 mmol/L
same,Serum insulin,[2],0.095 ± 0.017 nmol/L
same,Serum leptin,[2],0.97 ± 0.29 ng/mL
same,Serum total cholesterol,[2],1.29 ± 0.06 mmol/L
same,Serum triglycerides,[2],0.81 ± 0.21 mmol/L
same,Soleus muscle Lipoprotein lipase activity,[2],10.9 ± 1.5 μU/g protein
same,Soleus muscle weight,[2],0.096 ± 0.003 g
same,Total weight,[2],210 ± 2 g
same,VastusLateralis muscle weight,[2],0.800 ± 0.048 g
same,White adipose tissue inguinal Lipoprotein lipase activity,[2],801 ± 138 μU/g protein
same,White adipose tissue inguinal weight,[2],0.187 ± 0.023 g
same,White adipose tissue retroperitoneal Lipoprotein lipase activity,[2],1417 ± 163 μU/g protein
same,White adipose tissue retroperitoneal weight,[2],0.867 ± 0.132 g
same,OVX-induced increase in total serum cholesterol levels,[3]; 0.5 mg,completely prevented
same,increase of uterine weight compared to OVX control,[3]; 0.5 mg,62%
same,prevention of body weight increase induced by ovariectomy,"[3]; OVX rats, 0.5 mg",127%
same,Cholesterol,[3]; [6],0.95 ± 0.09 mmol/L
same,Final Body Weight,[3]; [6],210 ± 3 g
same,Uterine Weight,[3]; [6],247.4 ± 9.1 mg
same,Stimulation of alkaline phosphatase by tested compounds % of 1 nM E2 stimulation,[1]; [5],18 % of 1 nM E2 stimulation
CC/C(=C(\c1ccccc1)c1ccc(/C=C/C(=O)O)cc1)c1ccccc1 [GW-5638],Inhibition of 1 nM E2 stimulation of alkaline phosphatase by tested compounds IC50,"[1]; Ishikawa cells, five days incubation, 1 nM E2, antiestrogenic activity",No inhibition
same,Stimulation of alkaline phosphatase by tested compounds % of 1 nM E2 stimulation,[1]; [5],7.75 ± 5.5 (2) % of 1 nM E2 stimulation
CC/C(=C(\c1ccc(I)cc1)c1ccc(OCCN2CCCC2)cc1)c1ccccc1 [Idoxifene],IC50,[1],> 1000 nM
same,Stimulation of alkaline phosphatase by tested compounds % of 1 nM E2 stimulation,[1]; [5],25.1 ± 1.5 (5) % of 1 nM E2 stimulation
"C#C[C@]1(O)CC[C@H]2[C@@H]3CCc4cc(O)ccc4[C@H]3CC[C@@]21C [EE2, 17-ethynylestradiol]",increment of body fat and retroperitoneal adipose tissue by ovariectomy,[4],prevented
same,Fat %,"[4]; DEXA, EE2 0.1, Raloxifene 1, EM-652.HCl 1 mg/kg oral, DHEA 80 mg/kg topical",19.8 ± 1.9%
same,Left retroperitoneal adipose tissue,[4]; [7],1.15 ± 0.18 g
same,Right retroperitoneal adipose tissue,[4]; [7],1.29 ± 0.22 g
